From PubChem BioAssay AID2060620 (Molecular Pharmacology Branch, DTP, NCI, 2025)
Values joined by “and” are separate entries in the source; they are usually repeats but may differ in a detail not shown here. Equal entries are not always repeated.

System: 328373-195-R-J1-PDC complex spheroids, viability % test/control
Test: Anticancer human tumor 328373-195-R-J1-PDC patient-derived head and neck squamous carcinoma cell line growth inhibition [CLK]
Settings: for viability, T/C: stronger effect = lower value
Method in brief: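 Patient-derived tumor cells grown as complex spheroids with HUVEC endothelial cells and mesenchymal stem cells, treated with drug combinations. Concentrations descend in half-log steps from near clinical Cmax, or from 10 microM if Cmax unknown.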

[1] = curve of first compound, second compound 0.0316 µM
[2] = curve of first compound, second compound 0.1 µM
[3] = curve of first compound, second compound 0.316 µM
[4] = curve of first compound, second compound 1 µM
[5] = curve of first compound, second compound 3.16 µM
[6] = curve of first compound, second compound 10 µM
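Further: spheroids exposed to the agents for 7 days.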

With `C=CC(=O)N1CCN(c2nc(=O)n(-c3c(C)ccnc3C(C)C)c3nc(-c4c(O)cccc4F)c(F)cc23)C(C)C1` (stereo unspecified) + CN1CCN(c2cc(C(=O)Nc3cc4cc(-c5cnn(C)c5)ccc4cn3)ccn2)CC1 the IC50 [1] was > 10000 nM, the IC50 [2] was > 10000 nM and the IC50 [3] was < 31.6 nM. For the same molecule, the IC50 [4] was < 31.6 nM, the IC50 [5] was < 31.6 nM and the IC50 [6] was < 31.6 nM. The viability, T/C (second compound 0.0316 µM, first compound 0.0316 µM) was 93.6%, the viability, T/C (second compound 0.0316 µM, first compound 0.1 µM) was 90.1% and the viability, T/C (second compound 0.0316 µM, first compound 0.316 µM) was 99.3%. The viability, T/C (second compound 0.0316 µM, first compound 1 µM) was 99%, the viability, T/C (second compound 0.0316 µM, first compound 3.16 µM) was 94% and the viability, T/C (second compound 0.0316 µM, first compound 10 µM) was 77.7%. The viability, T/C (second compound 0.1 µM, first compound 0.0316 µM) was 80%, the viability, T/C (second compound 0.1 µM, first compound 0.1 µM) was 82.7% and the viability, T/C (second compound 0.1 µM, first compound 0.316 µM) was 89.3%. The viability, T/C (second compound 0.1 µM, first compound 1 µM) was 86.6%, the viability, T/C (second compound 0.1 µM, first compound 3.16 µM) was 83.5% and the viability, T/C (second compound 0.1 µM, first compound 10 µM) was 62.9%. The viability, T/C (second compound 0.316 µM, first compound 0.0316 µM) was 37.6%, the viability, T/C (second compound 0.316 µM, first compound 0.1 µM) was 37.7% and the viability, T/C (second compound 0.316 µM, first compound 0.316 µM) was 41.1%. It also gave a viability, T/C (second compound 0.316 µM, first compound 1 µM) of 43.2%, a viability, T/C (second compound 0.316 µM, first compound 3.16 µM) of 36.2% and a viability, T/C (second compound 0.316 µM, first compound 10 µM) of 16.5%. The viability, T/C (second compound 1 µM, first compound 0.0316 µM) was 0.2%, the viability, T/C (second compound 1 µM, first compound 0.1 µM) was 2.35% and the viability, T/C (second compound 1 µM, first compound 0.316 µM) was 0.89%. The viability, T/C (second compound 1 µM, first compound 1 µM) was 0.26%, the viability, T/C (second compound 1 µM, first compound 3.16 µM) was 1.99% and the viability, T/C (second compound 1 µM, first compound 10 µM) was 1.88%. For the same molecule, the viability, T/C (second compound 3.16 µM, first compound 0.0316 µM) was 1.99%, the viability, T/C (second compound 3.16 µM, first compound 0.1 µM) was 4.29% and the viability, T/C (second compound 3.16 µM, first compound 0.316 µM) was 3.33%. It also gave a viability, T/C (second compound 3.16 µM, first compound 1 µM) of 0.14%, a viability, T/C (second compound 3.16 µM, first compound 3.16 µM) of 1.88% and a viability, T/C (second compound 3.16 µM, first compound 10 µM) of 0.7%. The viability, T/C (second compound 10 µM, first compound 0.0316 µM) was 1.21%, the viability, T/C (second compound 10 µM, first compound 0.1 µM) was 1.7% and the viability, T/C (second compound 10 µM, first compound 0.316 µM) was 1.33%. It also gave a viability, T/C (second compound 10 µM, first compound 1 µM) of 0.55%, a viability, T/C (second compound 10 µM, first compound 3.16 µM) of 3.67% and a viability, T/C (second compound 10 µM, first compound 10 µM) of 1%.
In the case of `C=CC(=O)N1CCN(c2nc(=O)n(-c3c(C)ccnc3C(C)C)c3nc(-c4c(O)cccc4F)c(F)cc23)C(C)C1` (stereo unspecified), the viability, T/C (compound 0.0316 µM) is reported as 84.3% and 93.1%, the viability, T/C (compound 0.1 µM) is reported as 89.4% and 95.1% and the viability, T/C (compound 0.316 µM) is reported as 93.2% and 106%. The viability, T/C (compound 1 µM) was 98.8% and 87.5%, the viability, T/C (compound 3.16 µM) was 96.5% and 100% and the viability, T/C (compound 10 µM) was 77.4% and 74.5%. The IC50 (curve of compound) was > 10000 nM.
With `CC(C)CC(NC(=O)C(Cc1ccccc1)NC(=O)c1cnccn1)B(O)O` (stereo unspecified) + CN1CCN(c2cc(C(=O)Nc3cc4cc(-c5cnn(C)c5)ccc4cn3)ccn2)CC1 the IC50 [1] was 1.76 nM, the IC50 [2] was 1.5 nM and the IC50 [3] was < 0.949 nM. The IC50 [4] was < 0.949 nM, the IC50 [5] was < 0.949 nM and the IC50 [6] was < 0.949 nM. The viability, T/C (second compound 0.0316 µM, first compound 0.000949 µM) was 98.5%, the viability, T/C (second compound 0.0316 µM, first compound 0.003 µM) was 8.37% and the viability, T/C (second compound 0.0316 µM, first compound 0.00949 µM) was 1.89%. The viability, T/C (second compound 0.0316 µM, first compound 0.03 µM) was 0.2%, the viability, T/C (second compound 0.0316 µM, first compound 0.0949 µM) was 0.17% and the viability, T/C (second compound 0.0316 µM, first compound 0.3 µM) was 2.7%. It also gave a viability, T/C (second compound 0.1 µM, first compound 0.000949 µM) of 78.4%, a viability, T/C (second compound 0.1 µM, first compound 0.003 µM) of 6.61% and a viability, T/C (second compound 0.1 µM, first compound 0.00949 µM) of 2.17%. It also gave a viability, T/C (second compound 0.1 µM, first compound 0.03 µM) of 0.2%, a viability, T/C (second compound 0.1 µM, first compound 0.0949 µM) of 1.87% and a viability, T/C (second compound 0.1 µM, first compound 0.3 µM) of 2.34%. The viability, T/C (second compound 0.316 µM, first compound 0.000949 µM) was 26.6%, the viability, T/C (second compound 0.316 µM, first compound 0.003 µM) was 1.25% and the viability, T/C (second compound 0.316 µM, first compound 0.00949 µM) was 0.78%. It also gave a viability, T/C (second compound 0.316 µM, first compound 0.03 µM) of 0.49%, a viability, T/C (second compound 0.316 µM, first compound 0.0949 µM) of 1.14% and a viability, T/C (second compound 0.316 µM, first compound 0.3 µM) of 4.1%. It also gave a viability, T/C (second compound 1 µM, first compound 0.000949 µM) of 0.13%, a viability, T/C (second compound 1 µM, first compound 0.003 µM) of 3.65% and a viability, T/C (second compound 1 µM, first compound 0.00949 µM) of 0.97%. The viability, T/C (second compound 1 µM, first compound 0.03 µM) was 0.1%, the viability, T/C (second compound 1 µM, first compound 0.0949 µM) was 0.09% and the viability, T/C (second compound 1 µM, first compound 0.3 µM) was 2.54%. For the same molecule, the viability, T/C (second compound 3.16 µM, first compound 0.000949 µM) was 0.08%, the viability, T/C (second compound 3.16 µM, first compound 0.003 µM) was 4.42% and the viability, T/C (second compound 3.16 µM, first compound 0.00949 µM) was 1.48%. For the same molecule, the viability, T/C (second compound 3.16 µM, first compound 0.03 µM) was 0.07%, the viability, T/C (second compound 3.16 µM, first compound 0.0949 µM) was 1.48% and the viability, T/C (second compound 3.16 µM, first compound 0.3 µM) was 1.92%. For the same molecule, the viability, T/C (second compound 10 µM, first compound 0.000949 µM) was 2.18%, the viability, T/C (second compound 10 µM, first compound 0.003 µM) was 1.53% and the viability, T/C (second compound 10 µM, first compound 0.00949 µM) was 3.09%. It also gave a viability, T/C (second compound 10 µM, first compound 0.03 µM) of 0.11%, a viability, T/C (second compound 10 µM, first compound 0.0949 µM) of 1.22% and a viability, T/C (second compound 10 µM, first compound 0.3 µM) of 2.07%.
